The assay concerns SW480. In words: drug sensitivity score (DSS, integrated dose-response area); higher = more sensitive (stronger viability reduction); extreme values may be limits of the assay. An outline of the steps: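 SW480 cells stably carrying doxycycline-inducible control or SND1-targeting shRNA were treated with 0.1 µg/mL doxycycline for 7 days. Cells were then seeded at 1000 per well into 384-well plates containing 525 commercially available small-molecule inhibitors at five concentrations, and viability was measured with CellTiter-Glo after 72 h. The drug sensitivity score integrates the area under a fitted non-linear dose–response model.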

Setting [1] is: shRNA: SND1 shRNA1 (SND1 silenced).
The mark [2] stands for this setting: shRNA: SND1 shRNA2 (SND1 silenced).
The mark [3] stands for this setting: shRNA: control shRNA (non-targeting).

Consider `CCc1cnn2c(NCc3ccc[n+]([O-])c3)cc(N3CCCC[C@H]3CCO)nc12` [Dinaciclib], for which the drug sensitivity score is 18.1 DSS under setting [1], 15.8 DSS under setting [2] and 20.1 DSS under setting [3].
Consider `CCN(CC)CCCC(C)Nc1ccnc2cc(Cl)ccc12` (configuration not stated) [Chloroquine], for which the drug sensitivity score by setting is: under setting [1], 14.9 DSS; under setting [3], 11.6 DSS.
On to `CO[C@H]1C[C@@H]2CC[C@@H](C)[C@@](O)(O2)C(=O)C(=O)N2CCCC[C@H]2C(=O)O[C@H]([C@H](C)C[C@@H]2CC[C@@H](OP(C)(C)=O)[C@H](OC)C2)CC(=O)[C@H](C)/C=C(\C)[C@@H](O)[C@@H](OC)C(=O)[C@H](C)C[C@H](C)/C=C/C=C/C=C/1C` [Ridaforolimus], for which the drug sensitivity score was found to be 5.9 DSS under setting [1] and 2.3 DSS under setting [3].
Take `Nc1nc2[nH]cc(CCc3ccc(C(=O)N[C@@H](CCC(=O)O)C(=O)O)cc3)c2c(=O)[nH]1` [Pemetrexed]: the drug sensitivity score was determined as 9.9 DSS under setting [1] and 6.5 DSS under setting [3].
Consider `Cc1c2oc3c(C)ccc(C(=O)N[C@@H]4C(=O)N[C@H](C(C)C)C(=O)N5CCC[C@H]5C(=O)N(C)CC(=O)N(C)[C@@H](C(C)C)C(=O)O[C@@H]4C)c3nc-2c(C(=O)N[C@@H]2C(=O)N[C@H](C(C)C)C(=O)N3CCC[C@H]3C(=O)N(C)CC(=O)N(C)[C@@H](C(C)C)C(=O)O[C@@H]2C)c(N)c1=O` [Dactinomycin], for which the drug sensitivity score is, setting by setting: under setting [1], 24.3 DSS; under setting [2], 24 DSS; under setting [3], 26.8 DSS.
Regarding `CC(=O)O[C@@]12CO[C@@H]1C[C@H](O)[C@@]1(C)C(=O)[C@H](O)C3=C(C)[C@@H](OC(=O)[C@H](O)[C@@H](NC(=O)OC(C)(C)C)c4ccccc4)C[C@@](O)([C@@H](OC(=O)c4ccccc4)[C@H]21)C3(C)C` [Docetaxel], the drug sensitivity score is, setting by setting: under setting [1], 18.1 DSS; under setting [2], 16.5 DSS; under setting [3], 19 DSS.
For the molecule `CCOC(=O)CCNc1cc(N2CCc3ccccc3CC2)nc(-c2ccccn2)n1` [GSK-J4], the drug sensitivity score is, setting by setting: under setting [1], 14 DSS; under setting [2], 14.7 DSS; under setting [3], 12.3 DSS.
With `CCn1nnc2c(N3CCOCC3)nc(-c3ccc(NC(=O)Nc4ccc(C(=O)N5CCN(C)CC5)cc4)cc3)nc21` [PKI-402], the drug sensitivity score runs as follows: under setting [1], 6 DSS; under setting [2], 6.6 DSS; under setting [3], 8.2 DSS.
For `C[C@]12C=CC(=O)C=C1CC[C@@H]1[C@@H]2C(=O)C[C@@]2(C)[C@H]1CC[C@]2(O)C(=O)CO` [Prednisone], in that order: 0.5 DSS, 0.1 DSS and 2.9 DSS.
For `Cn1nnc2c(C(N)=O)ncn2c1=O` [Temozolomide], the drug sensitivity score runs as follows: under setting [1], 0 DSS; under setting [2], 5.2 DSS; under setting [3], 2.4 DSS.
For `Nc1cc(C(F)(F)F)c(-c2cc(N3CCOCC3)nc(N3CCOCC3)n2)cn1` [Buparlisib] the same measures were 8.9 DSS, 7.7 DSS and 5.9 DSS.
For `CN1CCc2c(c3ccccc3n2Cc2ccc(C(=O)NO)cc2)C1` [Tubastatin A], the drug sensitivity score worked out at 4.3 DSS under setting [1], 5 DSS under setting [2] and 6.4 DSS under setting [3].
Take `OCCn1cc(-c2cnc3nnn(Cc4ccc5ncccc5c4)c3n2)cn1`: the drug sensitivity score came to 0 DSS under setting [1], 0 DSS under setting [2] and 0 DSS under setting [3].
Take `Nc1nc(Cl)nc2c1ncn2[C@@H]1O[C@H](CO)[C@@H](O)[C@@H]1F` [Clofarabine]: the drug sensitivity score came to 8.4 DSS under setting [1], 0.7 DSS under setting [2] and 6.5 DSS under setting [3].
For `COc1cc([C@@H]2c3cc4c(cc3[C@@H](O[C@@H]3O[C@@H]5CO[C@@H](C)O[C@H]5[C@H](O)[C@H]3O)[C@H]3COC(=O)[C@H]23)OCO4)cc(OC)c1O` [Etoposide] the same measures were 3.1 DSS, 0.4 DSS and 3.3 DSS.
As to `CCC1(c2ccc(N)cc2)CCC(=O)NC1=O` (configuration not stated) [Aminoglutethimide], the drug sensitivity score under setting [1] turned out to be 0 DSS, the drug sensitivity score under setting [2] amounted to 0 DSS and the drug sensitivity score under setting [3] was determined as 0 DSS.
The molecule `CC(C)C[C@@H](C(=O)N[C@H](C(=O)OC1CCCC1)c1ccccc1)[C@H](O)C(=O)NO` [Tosedostat] came in with a drug sensitivity score under setting [1] of 4.4 DSS, a drug sensitivity score under setting [2] of 3.2 DSS and a drug sensitivity score under setting [3] of 3.2 DSS.
With `CO[C@H]1C(=O)[C@]2(C)[C@@H](OC)C[C@H]3OC[C@@]3(OC(C)=O)[C@H]2[C@H](OC(=O)c2ccccc2)[C@]2(O)C[C@H](OC(=O)[C@H](O)[C@@H](NC(=O)OC(C)(C)C)c3ccccc3)C(C)=C1C2(C)C` [Cabazitaxel], the drug sensitivity score by setting is: under setting [1], 18.7 DSS; under setting [2], 14.6 DSS; under setting [3], 20.3 DSS.
For `N#CC[C@H](C1CCCC1)n1cc(-c2ncnc3[nH]ccc23)cn1` [Ruxolitinib], in that order: 2.3 DSS, 5.6 DSS and 4.4 DSS.
In the case of `CCN(CC)C(=S)SSC(=S)N(CC)CC` [Disulfiram], the drug sensitivity score came to 29.7 DSS under setting [1] and 28.6 DSS under setting [3].
For the molecule `OC[C@H]1O[C@@H](n2cnc3c2N=CNC[C@H]3O)C[C@@H]1O` [Pentostatin], the drug sensitivity score came out at 1.6 DSS under setting [1], 3.5 DSS under setting [2] and 2.9 DSS under setting [3].
`O=C(CCCCCCC(=O)Nc1ccccc1)NO` [Vorinostat]: the drug sensitivity score reads like this: under setting [1], 7.8 DSS; under setting [2], 8 DSS; under setting [3], 9.3 DSS.
For `Nc1nc(N)c2nc(-c3cccc(O)c3)c(-c3cccc(O)c3)nc2n1` [TG100-115] the same measures were 0 DSS, 2.6 DSS and 4.9 DSS.
Consider `C[C@H]1Oc2cc(cnc2N)-c2c(nn(C)c2C#N)CN(C)C(=O)c2ccc(F)cc21`, for which the drug sensitivity score turned out to be 0.2 DSS under setting [1], 0.4 DSS under setting [2] and 1.9 DSS under setting [3].
Turning to `O=C(Nc1nc2cccc(-c3ccc(CN4CCS(=O)(=O)CC4)cc3)n2n1)C1CC1` [Filgotinib], the drug sensitivity score by setting is: under setting [1], 1.5 DSS; under setting [2], 0 DSS; under setting [3], 3.6 DSS.
On to `N#Cc1ccc2[nH]c(O)c(-c3ccc(CN4CCOCC4)cn3)c2c1` [AZD-1080], for which the drug sensitivity score was 1.3 DSS under setting [1] and 1.1 DSS under setting [3].
`Nc1cc(F)ccc1NC(=O)/C=C/c1cnn(C/C=C/c2ccccc2)c1` [RGFP966]: the drug sensitivity score runs as follows: under setting [1], 6.3 DSS; under setting [2], 6.3 DSS; under setting [3], 6.8 DSS.
Regarding `COc1c(OCCCN2CCOCC2)ccc2c1N=C(NC(=O)c1cnc(N)nc1)N1CCN=C21` [Copanlisib], the drug sensitivity score was 4 DSS under setting [1], 0.3 DSS under setting [2] and 0 DSS under setting [3].
With `CN[C@@H](C)C(=O)N[C@H]1CN(C(=O)CC(C)C)CC[C@H]2CC[C@@H](C(=O)NC(c3ccccc3)c3ccccc3)N2C1=O` [AT-406], the drug sensitivity score under setting [1] turned out to be 0 DSS, the drug sensitivity score under setting [2] was found to be 0 DSS and the drug sensitivity score under setting [3] was 0 DSS.
For `CCN(CC)CCOc1ccc(C(=C(Cl)c2ccccc2)c2ccccc2)cc1` [Clomifene], the drug sensitivity score is, setting by setting: under setting [1], 7 DSS; under setting [2], 5.3 DSS; under setting [3], 6.1 DSS.
For `Cc1cccc(-c2[nH]c(CNc3ccccc3F)nc2-c2ccc3ncnn3c2)n1` [TEW-7197], in that order: 0 DSS, 0.6 DSS and 0.6 DSS.
For the molecule `COC(=O)c1ccc2c(c1)[nH]c1ncnc(NCCCN3CCCCC3)c12` [UM729], the drug sensitivity score is, setting by setting: under setting [1], 1.8 DSS; under setting [2], 2.8 DSS; under setting [3], 3.3 DSS.
For `CN(N=O)C(=O)N[C@@H](C=O)[C@@H](O)[C@H](O)[C@H](O)CO` [Streptozocin] the same measures were 0.8 DSS, 5.9 DSS and 4.1 DSS.
Regarding `Nc1nc(Cl)nc2c1ncn2[C@H]1C[C@H](O)[C@@H](CO)O1` [Cladribine], the drug sensitivity score was found to be 2.4 DSS under setting [1], 0 DSS under setting [2] and 0.5 DSS under setting [3].
On to `CNC(=O)c1ccc2cc([C@@]3(O)CCn4cncc43)ccc2c1` [Orteronel], for which the drug sensitivity score reads like this: under setting [1], 0 DSS; under setting [2], 0 DSS; under setting [3], 0 DSS.
As to `COc1cc(NS(C)(=O)=O)ccc1Nc1c2ccccc2nc2ccccc12` [Amsacrine], the drug sensitivity score under setting [1] was determined as 8.6 DSS, the drug sensitivity score under setting [2] stood at 3.7 DSS and the drug sensitivity score under setting [3] amounted to 7 DSS.
Take `CNC(=O)c1ccccc1Nc1nc(Nc2ccc3c(c2OC)CCC[C@H](N2CCN(CCO)CC2)C3)ncc1Cl`: the drug sensitivity score runs as follows: under setting [1], 3.9 DSS; under setting [2], 3.5 DSS; under setting [3], 5.5 DSS.
For `COc1cc(N2CCC(N3CCN(C)CC3)CC2)ccc1Nc1ncnc(Nc2ccccc2S(=O)(=O)C(C)C)n1` [ASP3026], in that order: 4.6 DSS, 5 DSS and 8 DSS.
As for `Cn1ncc(Cl)c1-c1cc(C(=O)N[C@H](CN)Cc2cccc(F)c2)sc1Cl` [Afuresertib], the drug sensitivity score amounted to 0 DSS under setting [1], 2 DSS under setting [2] and 0 DSS under setting [3].

Values taken from the supplement of paper PMC9265050, “Inhibition of RNA Binding in SND1 Increases the Levels of miR-1-3p and Sensitizes Cancer Cells to Navitoclax” (Cancers, 2022).
